This is an account of results in patent US7772180B2, “Hepatitis C virus inhibitors” (Bristol-Myers Squibb Company, priority 2006, dated 2010).

The target of the first assay is T1, HCV NS3/4A protease complex, BMS strain (UniProt P27958, species not given/STRAIN_BMS).
T1 construct: other: NS3/4A BMS strain; activity range class; numeric values, unit not given; said of H77 and J4L6S; fused on or other part: A three-lysine solubilising tail at the C-terminus of NS4A; A His tag is implied by the pET21b vector and Ni-NTA purification; Both are printed for the H77 and J4L6S constructs and apply to BMS by inference
T1 sequence (P27958 1027-1657, change not shown, one chain of several): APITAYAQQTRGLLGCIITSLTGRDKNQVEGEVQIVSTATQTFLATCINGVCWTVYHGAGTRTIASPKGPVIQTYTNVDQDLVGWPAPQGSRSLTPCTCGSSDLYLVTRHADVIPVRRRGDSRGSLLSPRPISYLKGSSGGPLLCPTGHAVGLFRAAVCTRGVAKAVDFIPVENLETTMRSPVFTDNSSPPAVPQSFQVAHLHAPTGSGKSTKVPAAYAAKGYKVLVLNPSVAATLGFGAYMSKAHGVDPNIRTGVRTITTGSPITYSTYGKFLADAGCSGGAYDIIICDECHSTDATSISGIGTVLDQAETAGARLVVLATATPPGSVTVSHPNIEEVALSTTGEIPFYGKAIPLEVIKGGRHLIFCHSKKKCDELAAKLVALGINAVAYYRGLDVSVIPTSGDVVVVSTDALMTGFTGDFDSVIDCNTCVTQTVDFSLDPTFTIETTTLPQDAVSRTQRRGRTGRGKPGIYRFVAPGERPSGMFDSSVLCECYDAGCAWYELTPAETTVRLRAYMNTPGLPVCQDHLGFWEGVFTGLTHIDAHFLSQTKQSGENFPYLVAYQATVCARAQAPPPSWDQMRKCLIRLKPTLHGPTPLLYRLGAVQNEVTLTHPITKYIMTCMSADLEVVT
In words: FRET peptide assay to monitor HCV NS3/4A proteolytic activity (BMS strain). The assay is classed as biochemical, Hepatitis C virus (genotype 1a). Conditions: NS3/4A BMS strain; activity range class; read-out: HCV Protease (IC50). The source says:
HCV NS3 protease complexes, derived from the BMS strain, H77 strain or J4L6S strain, were generated, as described below. These purified recombinant proteins were generated for use in a homogeneous assay (see below) to provide an indication of how effective compounds of the present disclosure would be in inhibiting HCV NS3 proteolytic activity.
Serum from an HCV-infected patient was obtained from Dr. T. Wright, San Francisco Hospital. An engineered full-length cDNA (compliment deoxyribonucleic acid) template of the HCV genome (BMS strain) was constructed from DNA fragments obtained by reverse transcription-PCR (RT-PCR) of serum RNA (ribonucleic acid) and using primers selected on the basis of homology between other genotype 1a strains. From the determination of the entire genome sequence, a genotype 1a was assigned to the HCV isolate according to the classification of Simmonds et al. (See P Simmonds, K A Rose, S Graham, S W Chan, F McOmish, B C Dow, E A Follett, P L Yap and H Marsden, J. Clin. Microbiol., 31(6), 1493-1503 (1993)). […] The infectious clones, H77 (1a genotype) and J4L6S (1b genotype) were obtained from R. Purcell (NIH) and the sequences are published in Genbank (AAB67036, see Yanagi, M., Purcell, R. H., Emerson, S. U. and Bukh, J. Proc. Natl. Acad. Sci. U.S.A. 94(16), 8738-8743 (1997); AF054247, see Yanagi, M., St Claire, M., Shapiro, M., Emerson, S. U., Purcell, R. H. and Bukh, J. Virology 244 (1), 161-172. (1998)).
NS3/4A protease complex-containing fractions were pooled and loaded on a desalting column Superdex-S200 pre-equilibrated with buffer D (25 mM HEPES, pH 7.5, 20% glycerol, 300 mM NaCl, 0.2% Triton X-100, 10 mM βME). Sample was loaded at a flow rate of 1 mL/min. NS3/4A protease complex-containing fractions were pooled and concentrated to approximately 0.5 mg/ml. The purity of the NS3/4A protease complexes, derived from the BMS, H77 and J4L6S strains, were judged to be greater than 90% by SDS-PAGE and mass spectrometry analyses. The enzyme was stored at −80° C., thawed on ice and diluted prior to use in assay buffer.
The purpose of this in vitro assay was to measure the inhibition of HCV NS3 protease complexes, derived from the BMS strain, H77 strain or J4L6S strain, as described above, by compounds of the present disclosure. This assay provides an indication of how effective compounds of the present disclosure would be in inhibiting HCV NS3 proteolytic activity.
In order to monitor HCV NS3/4A protease activity, an NS3/4A peptide substrate was used. The substrate was RET S1 (Resonance Energy Transfer Depsipeptide Substrate; AnaSpec, Inc. cat #22991) (FRET peptide), described by Taliani et al. in Anal. Biochem. 240(2):60-67 (1996). The sequence of this peptide is loosely based on the NS4A/NS4B natural cleavage site for the HCV NS3 protease except there is an ester linkage rather than an amide bond at the cleavage site. The peptide also contains a fluorescence donor, EDANS, near one end of the peptide and an acceptor, DABCYL, near the other end. The fluorescence of the peptide is quenched by […] resonance energy transfer (RET) between the donor and the acceptor, but as the NS3 protease cleaves the peptide the products are released from RET quenching and the fluorescence of the donor becomes apparent.
The peptide substrate was incubated with one of the three recombinant NS3/4A protease complexes, in the absence or presence of a compound of the present disclosure. The inhibitory effects of a compound were determined by monitoring the formation of fluorescent reaction product in real time using a Cytofluor Series 4000.
Assay buffer: 50 mM HEPES, pH 7.5; 0.15 M NaCl; 0.1% Triton; 15% Glycerol; 10 mM βME. Substrate: 2 μM final concentration (from a 2 mM stock solution in DMSO stored at −20° C.). HCV NS3/4A protease type 1a (1b), 2-3 nM final concentration (from a 5 μM stock solution in 25 mM HEPES, pH 7.5, 20% glycerol, 300 mM NaCl, 0.2% Triton-X100, 10 mM βME). […]
On to `C=C[C@@H]1C[C@]1(NC(=O)[C@@H]1C[C@@H](Oc2ncc(OC)c3ccc(Cl)cc23)CN1C(=O)[C@H](Nc1cccc(C(=O)NC(C)(C)c2ccccc2)c1)C(C)(C)C)C(=O)NS(=O)(=O)C1CC1` (single isomer, unassigned; isomer 3) [216 second isomer], for which the IC50 (as a rule, the midpoint of a concentration-inhibition curve) was more than 200 nM.

Staying with this assay, now noted: read-out: HCV Protease (IC50); NS3/4A BMS strain; activity range class.
For the compound `C=C[C@@H]1C[C@]1(NC(=O)[C@@H]1C[C@@H](Oc2ncc(OC)c3ccc(Cl)cc23)CN1C(=O)[C@@H](Nc1cccc(S(=O)(=O)NC(C)(C)C)c1)C(C)(C)C)C(=O)NS(=O)(=O)C1CC1` [206 first isomer, N-(3-(tert-butylsulfamoyl)phenyl)-3-methyl-L-valyl-(4R)-4-((7-chloro-4-methoxy-1-isoquinolinyl)oxy)-N-((1R,2S)-1-((cyclopropylsulfonyl)carbamoyl)-2-vinylcyclopropyl)-L-prolinamide], the IC50 was 0.6 to 20 nM. Same read-out and setting: the result for `C=C[C@@H]1C[C@]1(NC(=O)[C@@H]1C[C@@H](Oc2nccc3cc(OC)ccc23)CN1C(=O)C(Nc1cc(C#N)ccn1)C(C)C)C(=O)NS(=O)(=O)C1CC1` (mixture of isomers) [Compound 11, N-(4-cyano-2-pyridinyl)valyl-(4R)—N-((1R,2S)-1-((cyclopropylsulfonyl)carbamoyl)-2-vinylcyclopropyl)-4-((6-methoxy-1-isoquinolinyl)oxy)-L-prolinamide] reads 0.6 to 20 nM; that for `C=C[C@@H]1C[C@]1(NC(=O)[C@@H]1C[C@@H](Oc2ncc(OC)c3ccc(Cl)cc23)CN1C(=O)C(Nc1ccc(OC(F)F)nc1)C(C)(C)C)C(=O)NS(=O)(=O)C1CC1` (single isomer, unassigned) [409 - first isomer], 20 to 200 nM; that for `C=C[C@@H]1C[C@]1(NC(=O)[C@@H]1C[C@@H](Oc2ncc(OC)c3ccc(Cl)cc23)CN1C(=O)[C@H](Nc1ccc(C(N)=O)cc1)C(C)(C)C)C(=O)NS(=O)(=O)C1CC1` [226 second isomer, N-(4-carbamoylphenyl)-3-methyl-D-valyl-(4R)-4-((7-chloro-4-methoxy-1-isoquinolinyl)oxy)-N-((1R,2S)-1-((cyclopropylsulfonyl)carbamoyl)-2-vinylcyclopropyl)-L-prolinamide], more than 200 nM. For the compound `C=C[C@@H]1C[C@]1(NC(=O)[C@@H]1C[C@@H](Oc2ncc(OC)c3ccc(Cl)cc23)CN1C(=O)[C@H](Nc1cccc(F)c1F)C(C)(C)C)C(=O)NS(=O)(=O)C1CC1` [208 second isomer, N-(2,3-difluorophenyl)-3-methyl-D-valyl-(4R)-4-((7-chloro-4-methoxy-1-isoquinolinyl)oxy)-N-((1R,2S)-1-((cyclopropylsulfonyl)carbamoyl)-2-vinylcyclopropyl)-L-prolinamide], the IC50 is more than 200 nM.

Turning to `C=C[C@@H]1C[C@]1(NC(=O)[C@@H]1C[C@@H](Oc2nc3c(c4cc(OC)ccc24)OCCN3C)CN1C(=O)[C@@H](Nc1ccc(F)c(F)c1)C(C)(C)C)C(=O)NS(=O)(=O)C1CC1` [235 first isomer, N-(3,4-difluorophenyl)-3-methyl-L-valyl-(4R)—N-((1R,2S)-1-((cyclopropylsulfonyl)carbamoyl)-2-vinylcyclopropyl)-4-((9-methoxy-4-methyl-3,4-dihydro-2H-[1,4]oxazino[3,2-c]isoquinolin-6-yl)oxy)-L-prolinamide], the IC50 was more than 200 nM. On the same count and under the same terms, the figure for `C=C[C@@H]1C[C@]1(NC(=O)[C@@H]1C[C@@H](Oc2ncc(OC)c3ccc(Cl)cc23)CN1C(=O)[C@H](Nc1ccc(S(=O)(=O)NC(C)(C)C)cc1)C(C)(C)C)C(=O)NS(=O)(=O)C1CC1` [214 second isomer, N-(4-(tert-butylsulfamoyl)phenyl)-3-methyl-D-valyl-(4R)-4-((7-chloro-4-methoxy-1-isoquinolinyl)oxy)-N-((1R,2S)-1-((cyclopropylsulfonyl)carbamoyl)-2-vinylcyclopropyl)-L-prolinamide] is more than 200 nM; for `C=C[C@@H]1C[C@]1(NC(=O)[C@@H]1C[C@@H](Oc2ncc(OC)c3ccc(Cl)cc23)CN1C(=O)C(Nc1ccc(OC(F)F)nc1)C(C)(C)C)C(=O)NS(=O)(=O)C1CC1` (single isomer, unassigned) [409 - second isomer] it is more than 200 nM. The same measure, in the same setting: the result for `C=C[C@@H]1C[C@]1(NC(=O)[C@@H]1C[C@@H](Oc2ncc(OC)c3ccc(Cl)cc23)CN1C(=O)[C@H](Nc1cccc(C(N)=O)c1)C(C)(C)C)C(=O)NS(=O)(=O)C1CC1` [217 second isomer, N-(3-carbamoylphenyl)-3-methyl-D-valyl-(4R)-4-((7-chloro-4-methoxy-1-isoquinolinyl)oxy)-N-((1R,2S)-1-((cyclopropylsulfonyl)carbamoyl)-2-vinylcyclopropyl)-L-prolinamide] reads more than 200 nM.

The test system of a further assay is HCV replicon (strain 1b) in HUH-7 cells. In words: HCV replicon FRET assay. It is filed as cell-based, Hepatitis C virus. Conditions: Hepatitis C virus, Huh-7, read-out: HCV Pro Replicon (EC50), HCV replicon cell assay; activity range class. An excerpt: An HCV replicon whole cell system was established as described by Lohmann V, Korner F, Koch J, Herian U, Theilmann L, Bartenschlager R., Science 285(5424): 110-3 (1999). This system enabled us to evaluate the effects of our HCV Protease compounds on HCV RNA replication. Briefly, using the HCV strain 1b sequence described in the Lohmann paper (Assession number: AJ238799), an HCV cDNA was synthesized by Operon Technologies, Inc. (Alameda, Calif.), and the full-length replicon was then assembled in plasmid pGem9zf(+) (Promega, Madison, Wis.) using standard molecular biology techniques. The replicon consists of (i) the HCV 5′ UTR fused to the first 12 amino acids of the capsid protein, (ii) the neomycin phosphotransferase gene (neo), (iii) the IRES from encephalomyocarditis virus (EMCV), and (iv) HCV NS3 to NS5B genes and the HCV 3′ UTR. Plasmid DNAs were linearized with ScaI and RNA transcripts were synthesized in vitro using the T7 MegaScript transcription kit (Ambion, Austin, Tex.) according to manufacturer's directions. In vitro transcripts of the cDNA were transfected into the human hepatoma cell line, HUH-7. […] Resulting cell lines were characterized for positive and negative strand RNA production and protein production over time.
The HCV replicon FRET assay was developed to monitor the inhibitory effects of compounds described in the disclosure on HCV viral replication. HUH-7 cells, constitutively expressing the HCV replicon, were grown in Dulbecco's Modified Eagle Media (DMEM) (Gibco-BRL) containing 10% Fetal calf serum (FCS) (Sigma) and 1 mg/ml G418 (Gibco-BRL). Cells were seeded the night before (1.5×10^4 cells/well) in 96-well tissue-culture sterile plates. Compound and no compound controls were prepared in DMEM containing 4% FCS, 1:100 Penicillin/Streptomysin (Gibco-BRL), 1:100 L-glutamine and 5% DMSO in the dilution plate (0.5% DMSO final concentration in the assay). Compound/DMSO mixes were added to the cells and incubated for 4 days at 37° C. After 4 days, cells were first assessed for cytotoxicity using alamar Blue (Trek Diagnotstic Systems) for a CC50 reading. The toxicity of compound (CC50) was determined by adding 1/10th volume of alamarBlue to the media incubating the cells. After 4 hours, the fluorescence signal from each well was read, with an excitation wavelength at 530 nm and an emission wavelength of 580 nm, using the Cytofluor Series 4000 (Perspective Biosystems). Plates were then rinsed thoroughly with Phosphate-Buffered Saline (PBS) (3 times 150 μl).
Turning to `C=C[C@@H]1C[C@]1(NC(=O)[C@@H]1C[C@@H](Oc2ncc(OC)c3ccc(Cl)cc23)CN1C(=O)[C@@H](Nc1cccc(S(=O)(=O)NC(C)(C)C)c1)C(C)(C)C)C(=O)NS(=O)(=O)C1CC1` [206 first isomer, N-(3-(tert-butylsulfamoyl)phenyl)-3-methyl-L-valyl-(4R)-4-((7-chloro-4-methoxy-1-isoquinolinyl)oxy)-N-((1R,2S)-1-((cyclopropylsulfonyl)carbamoyl)-2-vinylcyclopropyl)-L-prolinamide], the concentration giving a half-maximal response (EC50) (commonly the concentration needed to bring the measured effect to its halfway point) was 3 to 100 nM. With `C=C[C@@H]1C[C@]1(NC(=O)[C@@H]1C[C@@H](Oc2nccc3cc(OC)ccc23)CN1C(=O)C(Nc1cc(C#N)ccn1)C(C)C)C(=O)NS(=O)(=O)C1CC1` (mixture of isomers) [Compound 11, N-(4-cyano-2-pyridinyl)valyl-(4R)—N-((1R,2S)-1-((cyclopropylsulfonyl)carbamoyl)-2-vinylcyclopropyl)-4-((6-methoxy-1-isoquinolinyl)oxy)-L-prolinamide], the EC50 was 3 to 100 nM.
